What was measured:
HeLa cells = experiment: HeLa cell viability (CCK-8) in 3D h9e hydrogel; type: cell-based; conditions: same amount of camptothecin
Experimental: Cell culture and drug efficacy/diffusion tests: HeLa cells were grown in the hydrogel in 3D. Aliquots of HeLa cells solution were added into […] hydrogel with DMEM containing 10% FBS with a final peptide concentration of 0, 0.25, 0.5 and 1 wt %. 100 μl of cell mixture solution (3×10^4 cells per well) was seeded into a 96-well culture plate (Becton Dickinson Labware, Franklin Lakes, N.J.) and placed in an incubator (Nuair, Playmouth, Minn.) in a humidified 5% CO2 atmosphere at 37° C. for about 30 min. After complete hydrogelation, 10 μl of DMEM containing 0, 50 uM, 100 uM, or 200 uM camptothecin was added on top of the hydrogel to obtain camptothecin concentrations of 0 μM, 3.125 μM, 6.25 μM, and 12.5 μM, respectively, upon total diffusion in the hydrogel. Then, 50 ul of DMEM was carefully added to the top of the hydrogel to prevent drying during long-term incubation. All measurements were made at least in triplicate, and the plates were incubated for 3 days. A CCK-8 assay was used to determine cell viability after each treatment. 10 μL of CCK solution was added to each well. After 4 h of incubation, the absorbance at 450 nm was collected on a microplate reader (mQuant, Bio-Tek) and corrected by subtracting the background signal from a wall containing only 160 ul DMEM containing 10% FBS. […]

[1] = Hydrogelation and dynamic rheology of h9e in MEM; type: physicochemical; conditions: MEM without serum
[2] = Hydrogel formation and gelation time sweep of h9e with commercial mouse blood; conditions: all concentrations except 1%
Experimental: About 150 μL of the appropriate wt % of peptide solution was added to 150 μL of commercial mouse blood in a small vial. The mixture was pipetted 5 times to ensure continuity and observed for visual hydrogel formation. Visual observation of hydrogel formation was recorded via a Nikon Coolpix L22 camera (FIG. 9).
Hydrogel gelation time sweep (instantaneous): A time sweep was conducted on the hydrogel and commercial mouse blood mixture. 150 μL of the appropriate wt % of peptide solution was added to 150 μL of commercial mouse blood in a small vial. The mixture was pipetted about 5 times to ensure continuity and added to the rheometer for evaluation. Both storage and loss moduli, G′ and G″ respectively, of the h9e/blood hydrogel were determined using a C-VOR 150 rheometer (Malvern Instruments, Malvern, Worcestershire, United Kingdom). A plate 20 mm in diameter was used with 1% strain and frequency of 1 Hz at a 37° C. temperature for 30 minutes.
Hydrogel stability gelation time sweep (24 hours post gelatinization): A time sweep was conducted on the hydrogel and commercial mouse blood mixture. 24 hours post gelation. […] Both storage and loss moduli, G′ and G″ respectively, of the h9e/blood hydrogel was determined using a C-VOR 150 rheometer (Malvern Instruments, Malvern, Worcestershire, United Kingdom). […]

[3] = h9e-MSC medium hydrogel rheology; type: physicochemical
Experimental: Two different types of stem cell mediums were selected for this test. One is a low glucose DMEM medium with 2% (v/v) Fetal Bovine Serum (FBS) for Mesenchymal Stromal Cell (MSC medium). The other one is a N2B27 supplemented serum-free 2i medium with 0.5% (v/v) Bovine Serum Albumin (BSA) for rat Embryonic Stem Cell (ESC, 2i medium). The hydrogel formation process was monitored under a time sweep rheological test for 1 hour. The special shear-thinning and self-healing property of h9e peptide hydrogel was also tested. […] In addition, the stability of hydrogel as well as the peptide solution before the hydrogel formation was also tested.
The h9e peptide was synthesized according to the method mentioned above. Lyophilized peptide was added to 100 mM sodium bicarbonate and completely dissolved by magnetic stirring for 3 hours with a final peptide concentration of 10 mM. For hydrogelation, peptide solution was added into MSC medium or 2i medium and the mixture was hand-shaken for about 10 seconds or gently pipette mixed 3 times. The final peptide concentrations were 1, 2, and 3 mM.
The storage and loss moduli (G′ and G″, respectively) of h9e hydrogels were determined on a C-VOR 150 rheometer system (Malvern instruments, Malvern, Worcestershire WR141XZ, United Kingdom) with a 20-mm diameter parallel plate geometry and 500 μm gap size at 37° C. The methods for hydrogel formation test and shear-thinning and self-healing test were the same as the methods of cancer cell medium mentioned above. After 24 hours of hydrogel formation, 2 mM peptide hydrogel was diluted 20 fold by adding cell culture medium and thorough mixing by pipette. The diluted solution was transferred to rheometer system and tested under 1 Hz frequency and 1% shear strain at 4° C. for 1 hour.

[4] = Rheology of h9e/HSA hydrogel formation; type: physicochemical
Experimental: (§1) For albumin triggered hydrogel formation, 10 mM (1.74 wt %) peptide was first dissolved in 100 mM NaHCO3 solution. BSA and HSA were dissolved in water with 5 wt % concentration. The peptide solution and albumin solution were then mixed at different ratios for final mixtures of 1, 2, 3 mM h9e peptide with albumin from 0.1 to 5 wt %.
The storage (G′) and loss (G″) moduli of h9e hydrogels with different peptide/albumin ratios were measured on a rheometer system C-VOR 150 (Malvern instruments, Malvern, Worcestershire WR141XZ, United Kingdom) with a 20 mm diameter parallel plate test system. All rheological tests were carried out at 37° C. To determine the hydrogel forming rate, the peptide and albumin mixture was placed on the measuring system immediately after preparation and tested by a single frequency (1 Hz) method with steady shear strain (1%) for 1 hour

[5] = Rheology of h9e/BSA hydrogel formation (storage modulus G′); type: physicochemical; conditions: for G′ after 2 hours of testing: 3 mM h9e
Experimental: as §1
The storage (G′) and loss (G″) moduli of h9e hydrogels with different peptide/albumin ratios were measured on a rheometer system C-VOR 150 (Malvern instruments, Malvern, Worcestershire WR141XZ, United Kingdom) with a 20 mm diameter parallel plate test system. All rheological tests were carried out at 37° C. […]

viscosity, strength and stability 24 hours post gelation versus instantaneous [2]: increased
stable G′ ([3]; 1 mM h9e-MSC hydrogel): 70 Pa
G′ under 500% shear strain ([3]; 2 mM h9e-MSC hydrogel): lower than 0.2 Pa
stable G′ ([3]; 2 mM h9e-MSC hydrogel): 350 Pa
gel strength recovered ([3]; 2 mM h9e-MSC hydrogel, 1 min after shear ceased): greater than 90%
mechanical strength recovered ([3]; 2 mM h9e-MSC hydrogel, within a few minutes of 1% shear strain recovery test): 100%
stable G′ ([3]; 3 mM h9e-MSC hydrogel): 800 Pa
G′ and G″ after 20-fold dilution ([3]; diluted from 2 mM to 0.1 mM, 1 hour test): lower than 4 Pa
hydrogel formation ([4]; 3 mM h9e peptide mixed with 5 wt % HSA): hydrogel was formed
hydrogel formation ([4]; peptide concentration 1 mM or HSA concentration 0.5 wt %): Hydrogel did not form
hydrogel formation ([5]; 1 mM peptide with 1 wt % BSA, 2 hour test): performed like a Newtonian liquid
stable G′ ([5]; 3 mM h9e peptide solution mixed with 5% BSA, 37° C.): around 200 Pa
behaviour of peptide solution alone ([5]; 3 mM h9e solution without BSA, 30 min test): performed as Newtonian liquid
G′ after 2 hours of testing ([5]; 0.1 wt % BSA): about 110 Pa
G′ after 2 hours of testing ([5]; 0.5 wt % BSA): over 900 Pa
G′ after 2 hours of testing ([5]; 1 wt % BSA): 680 Pa
G′ after 2 hours of testing ([5]; 5 wt % BSA): 200 Pa
gel strength ([5]; 0.5% h9e peptide and 0.5% BSA, incubated at 37° C. for 30 min): about 450 Pa
Substance: H-FLIVIGSIIGPGGDGPGGD-NH2 [h9e, FLIVIGSIIGPGGDGPGGD]
HeLa cell viability across h9e hydrogel concentrations (HeLa cells): cell viability was comparable
solution to hydrogel transition [1]: did not stimulate this solution to hydrogel transitions effectively

From US11135163B2, “Peptide hydrogel properties and its applications” (Kansas State University Research Foundation, priority 2014, dated 2021)
